Source: patent US9050341B2, “Methods of treating drug resistant and other tumors by administering 6,7-dialkoxy quinazoline derivatives” (NATCO PHARMA LIMITED, priority 2009, dated 2015)

Legend:
Assay in all cases: KinomeScan kinase profiling
Assay type in all cases: binding
TNNI3K = molecular target: T1, TNNI3K (Homo sapiens, UniProt Q59H18)
T1 construct: purchased Ambit Biosciences Corp (KinomeScan); host or cells: E. coli host derived from the BL21 strain (T7 phage lysate)
Outline: (§1)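 Kinases were expressed as T7 phage fusions in a BL21-derived E. coli host and the cleared lysates were used. Ligand beads were blocked with biotin and buffer (1% BSA, 0.05% Tween 20, 1 mM DTT). Compounds came from 40× DMSO stocks, and phage in the eluates was titred by qPCR.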

MYLK = molecular target: T2, MYLK (Homo sapiens, UniProt Q15746)
T2 construct: host or cells: T7 phage in E. coli host derived from BL21
Outline: as §1

PLK1 = molecular target: T3, PLK1 (Homo sapiens, UniProt P53350)
T3 construct: purchased Ambit Biosciences Corp (KinomeScan); host or cells: E. coli host derived from BL21, infected with T7 phage
Outline: as §1

FLT3 = molecular target: T4, FLT3 (Homo sapiens, UniProt P36888)
T4 construct: host or cells: E. coli host derived from BL21, infected with T7 phage
Outline: as §1

ERBB2 = molecular target: T5, ERBB2 (Homo sapiens, UniProt P04626)
T5 construct: host or cells: E. coli host derived from BL21, T7 phage lysate
T5 sequence (P04626 23-1255): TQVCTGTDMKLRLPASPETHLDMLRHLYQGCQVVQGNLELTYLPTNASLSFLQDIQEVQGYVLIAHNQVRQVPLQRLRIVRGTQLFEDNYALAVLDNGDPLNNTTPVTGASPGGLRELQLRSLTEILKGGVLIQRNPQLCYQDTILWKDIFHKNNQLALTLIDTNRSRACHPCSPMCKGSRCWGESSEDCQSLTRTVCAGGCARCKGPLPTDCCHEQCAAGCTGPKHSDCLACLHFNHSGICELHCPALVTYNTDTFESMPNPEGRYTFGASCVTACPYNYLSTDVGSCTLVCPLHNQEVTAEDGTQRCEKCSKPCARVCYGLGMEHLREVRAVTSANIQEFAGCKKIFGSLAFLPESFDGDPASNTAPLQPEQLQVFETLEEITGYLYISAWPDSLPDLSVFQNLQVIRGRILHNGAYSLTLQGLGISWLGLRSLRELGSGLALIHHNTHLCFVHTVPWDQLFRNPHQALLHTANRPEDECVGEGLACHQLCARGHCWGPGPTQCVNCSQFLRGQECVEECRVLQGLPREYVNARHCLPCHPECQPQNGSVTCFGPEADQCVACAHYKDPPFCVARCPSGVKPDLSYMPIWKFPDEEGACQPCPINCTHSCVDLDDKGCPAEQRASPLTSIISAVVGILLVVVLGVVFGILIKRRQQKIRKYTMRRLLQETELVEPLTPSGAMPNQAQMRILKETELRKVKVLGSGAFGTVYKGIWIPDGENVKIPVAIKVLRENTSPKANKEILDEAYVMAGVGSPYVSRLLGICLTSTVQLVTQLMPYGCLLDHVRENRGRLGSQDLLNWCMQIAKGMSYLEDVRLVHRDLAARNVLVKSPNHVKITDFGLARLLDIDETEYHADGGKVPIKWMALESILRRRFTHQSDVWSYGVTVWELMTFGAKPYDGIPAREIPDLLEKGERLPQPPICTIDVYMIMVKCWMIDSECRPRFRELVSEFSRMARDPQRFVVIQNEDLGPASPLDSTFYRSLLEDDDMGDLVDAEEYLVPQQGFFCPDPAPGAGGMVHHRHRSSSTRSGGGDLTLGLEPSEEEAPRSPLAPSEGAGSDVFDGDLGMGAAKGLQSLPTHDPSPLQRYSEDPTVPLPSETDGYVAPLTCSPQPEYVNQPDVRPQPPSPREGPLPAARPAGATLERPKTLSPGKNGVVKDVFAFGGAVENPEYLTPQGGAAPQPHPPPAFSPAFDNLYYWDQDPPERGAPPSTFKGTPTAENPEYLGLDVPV
Outline: as §1

TNK2 = molecular target: T6, TNK2 (Homo sapiens, UniProt Q07912)
T6 construct: purchased Ambit Biosciences Corp (KinomeScan); host or cells: E. coli host derived from the BL21 strain (T7 phage lysate)
Outline: as §1

FRK = molecular target: T7, FRK (Homo sapiens, UniProt P42685)
T7 construct: host or cells: E. coli host derived from BL21, infected with T7 phage
Outline: as §1

CAMKK1 = molecular target: T8, CAMKK1 (Homo sapiens, UniProt Q8N5S9)
T8 construct: host or cells: T7 phage in E. coli (BL21-derived)
T8 sequence (Q8N5S9 whole entry): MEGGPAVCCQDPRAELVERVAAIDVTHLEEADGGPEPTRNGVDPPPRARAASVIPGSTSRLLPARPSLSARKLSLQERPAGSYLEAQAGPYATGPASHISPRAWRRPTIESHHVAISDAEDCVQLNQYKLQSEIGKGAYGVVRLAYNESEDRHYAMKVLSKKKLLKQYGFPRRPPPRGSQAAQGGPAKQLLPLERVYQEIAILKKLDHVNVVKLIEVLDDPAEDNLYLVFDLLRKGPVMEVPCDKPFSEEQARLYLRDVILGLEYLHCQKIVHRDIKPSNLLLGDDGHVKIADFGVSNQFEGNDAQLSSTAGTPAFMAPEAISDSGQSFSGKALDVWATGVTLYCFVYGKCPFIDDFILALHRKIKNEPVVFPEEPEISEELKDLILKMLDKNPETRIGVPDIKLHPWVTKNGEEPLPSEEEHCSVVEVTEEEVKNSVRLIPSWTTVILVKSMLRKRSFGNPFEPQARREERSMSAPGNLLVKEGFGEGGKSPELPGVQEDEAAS
Outline: as §1

EGFR (G719S) = molecular target: T9, EGFR (G719S) (Homo sapiens, UniProt P00533, G719S)
T9 construct: purchased Ambit Biosciences Corp (KinomeScan); host or cells: T7 phage in E. coli host derived from BL21
Outline: as §1

BRK = molecular target: T10, BRK (Homo sapiens, UniProt Q13882)
T10 construct: purchased Ambit Biosciences Corp (KinomeScan); host or cells: E. coli host derived from the BL21 strain, T7 phage
Outline: as §1

MYLK2 = molecular target: T11, MYLK2 (Homo sapiens, UniProt Q9H1R3)
T11 construct: host or cells: T7 phage in E. coli host derived from BL21
Outline: as §1

GAK = molecular target: T12, GAK (Homo sapiens, UniProt O14976)
T12 construct: host or cells: E. coli host derived from BL21, infected with T7 phage
Outline: as §1

PIK3CA = molecular target: T13, PIK3CA (Homo sapiens, UniProt P42336)
T13 construct: host or cells: E. coli host derived from the BL21 strain, infected with T7 phage
T13 sequence (P42336 whole entry): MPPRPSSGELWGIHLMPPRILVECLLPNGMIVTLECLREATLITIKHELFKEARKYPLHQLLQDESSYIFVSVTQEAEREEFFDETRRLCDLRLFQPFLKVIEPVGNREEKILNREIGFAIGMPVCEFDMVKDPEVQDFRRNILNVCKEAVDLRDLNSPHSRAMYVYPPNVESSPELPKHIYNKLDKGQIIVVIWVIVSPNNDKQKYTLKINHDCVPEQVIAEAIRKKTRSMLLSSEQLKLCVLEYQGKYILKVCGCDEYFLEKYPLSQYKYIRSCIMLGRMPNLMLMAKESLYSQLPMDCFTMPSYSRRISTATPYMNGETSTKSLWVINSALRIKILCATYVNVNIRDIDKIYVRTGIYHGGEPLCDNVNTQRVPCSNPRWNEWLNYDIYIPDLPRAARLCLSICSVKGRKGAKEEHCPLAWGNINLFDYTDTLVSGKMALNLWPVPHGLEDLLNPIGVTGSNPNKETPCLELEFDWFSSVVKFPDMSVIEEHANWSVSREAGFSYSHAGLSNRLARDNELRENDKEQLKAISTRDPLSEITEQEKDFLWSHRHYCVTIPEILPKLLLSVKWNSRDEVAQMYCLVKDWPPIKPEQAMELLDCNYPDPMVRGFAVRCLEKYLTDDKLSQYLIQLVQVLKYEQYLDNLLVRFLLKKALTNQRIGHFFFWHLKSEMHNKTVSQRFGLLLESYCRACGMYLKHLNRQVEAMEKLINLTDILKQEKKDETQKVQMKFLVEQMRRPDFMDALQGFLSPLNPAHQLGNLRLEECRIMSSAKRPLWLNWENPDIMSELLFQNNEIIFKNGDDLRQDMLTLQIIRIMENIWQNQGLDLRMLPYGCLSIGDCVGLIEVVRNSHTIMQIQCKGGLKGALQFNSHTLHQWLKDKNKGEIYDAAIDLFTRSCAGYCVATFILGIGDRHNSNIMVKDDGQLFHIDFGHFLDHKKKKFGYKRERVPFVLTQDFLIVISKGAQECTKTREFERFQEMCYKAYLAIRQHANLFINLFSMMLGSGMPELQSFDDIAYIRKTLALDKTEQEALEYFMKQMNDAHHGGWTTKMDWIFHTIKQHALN
Outline: as §1

[1] = molecular target: T14, RPS6KA1 (Kin.Dom.-1-N-terminal) (Homo sapiens, UniProt Q15418)
T14 construct: RPS6KA1 (Kin.Dom.-1-N-terminal); host or cells: E. coli host derived from BL21, T7 phage lysate
T14 sequence (Q15418 62-321 limits assumed): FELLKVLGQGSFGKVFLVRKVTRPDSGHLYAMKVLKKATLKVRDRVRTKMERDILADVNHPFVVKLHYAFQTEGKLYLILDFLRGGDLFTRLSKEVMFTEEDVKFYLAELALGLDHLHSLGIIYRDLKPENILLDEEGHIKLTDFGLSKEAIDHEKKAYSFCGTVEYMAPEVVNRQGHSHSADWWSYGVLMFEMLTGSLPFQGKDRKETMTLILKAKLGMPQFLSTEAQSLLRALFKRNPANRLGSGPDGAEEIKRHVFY
Outline: as §1

BRAF = molecular target: T15, BRAF (Homo sapiens, UniProt P15056)
T15 construct: purchased Ambit Biosciences Corp (KinomeScan); host or cells: E. coli host derived from the BL21 strain, T7 phage
Outline: as §1

NEK7 = molecular target: T16, NEK7 (Homo sapiens, UniProt Q8TDX7)
T16 construct: host or cells: T7 phage in E. coli host derived from BL21
T16 sequence (Q8TDX7 whole entry): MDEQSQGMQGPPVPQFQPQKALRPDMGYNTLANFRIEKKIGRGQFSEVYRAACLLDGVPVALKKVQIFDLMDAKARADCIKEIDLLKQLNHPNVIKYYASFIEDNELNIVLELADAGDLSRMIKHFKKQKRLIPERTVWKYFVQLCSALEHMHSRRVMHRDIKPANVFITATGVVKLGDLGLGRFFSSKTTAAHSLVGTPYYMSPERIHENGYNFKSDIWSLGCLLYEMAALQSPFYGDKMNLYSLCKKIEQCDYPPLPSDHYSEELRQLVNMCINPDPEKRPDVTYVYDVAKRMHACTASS
Outline: as §1

CAMK2A = molecular target: T17, CAMK2A (Homo sapiens, UniProt Q9UQM7)
T17 construct: purchased Ambit Biosciences Corp (KinomeScan); host or cells: E. coli host derived from the BL21 strain, T7 phage
Outline: as §1

MELK = molecular target: T18, MELK (Homo sapiens, UniProt Q14680)
T18 construct: host or cells: E. coli derived from BL21, infected with T7 phage
T18 sequence (Q14680 whole entry): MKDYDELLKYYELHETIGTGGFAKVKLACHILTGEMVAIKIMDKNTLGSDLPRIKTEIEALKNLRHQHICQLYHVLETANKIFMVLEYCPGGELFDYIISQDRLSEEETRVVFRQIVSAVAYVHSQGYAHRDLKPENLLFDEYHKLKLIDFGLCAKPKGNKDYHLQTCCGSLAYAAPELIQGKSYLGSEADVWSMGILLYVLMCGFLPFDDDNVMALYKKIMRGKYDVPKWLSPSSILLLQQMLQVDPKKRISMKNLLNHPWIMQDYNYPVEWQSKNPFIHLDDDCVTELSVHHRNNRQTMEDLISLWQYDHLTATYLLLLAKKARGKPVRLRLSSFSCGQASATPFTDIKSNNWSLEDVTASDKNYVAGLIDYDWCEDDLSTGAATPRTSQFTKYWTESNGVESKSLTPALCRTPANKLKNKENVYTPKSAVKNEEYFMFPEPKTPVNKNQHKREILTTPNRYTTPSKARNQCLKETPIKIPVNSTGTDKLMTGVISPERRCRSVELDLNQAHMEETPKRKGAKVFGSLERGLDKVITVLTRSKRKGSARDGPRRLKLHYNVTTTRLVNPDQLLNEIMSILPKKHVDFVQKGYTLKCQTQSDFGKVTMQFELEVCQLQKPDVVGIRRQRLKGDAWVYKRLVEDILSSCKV
Outline: as §1

PFTAIRE2 = molecular target: T19, PFTAIRE2 (Homo sapiens, UniProt Q96Q40)
T19 construct: host or cells: E. coli host derived from the BL21 strain, infected with T7 phage
Outline: as §1

ADCK4 = molecular target: T20, ADCK4 (Homo sapiens, UniProt Q96D53)
T20 construct: host or cells: E. coli host derived from BL21 (T7 phage lysate)
T20 sequence (Q96D53 whole entry): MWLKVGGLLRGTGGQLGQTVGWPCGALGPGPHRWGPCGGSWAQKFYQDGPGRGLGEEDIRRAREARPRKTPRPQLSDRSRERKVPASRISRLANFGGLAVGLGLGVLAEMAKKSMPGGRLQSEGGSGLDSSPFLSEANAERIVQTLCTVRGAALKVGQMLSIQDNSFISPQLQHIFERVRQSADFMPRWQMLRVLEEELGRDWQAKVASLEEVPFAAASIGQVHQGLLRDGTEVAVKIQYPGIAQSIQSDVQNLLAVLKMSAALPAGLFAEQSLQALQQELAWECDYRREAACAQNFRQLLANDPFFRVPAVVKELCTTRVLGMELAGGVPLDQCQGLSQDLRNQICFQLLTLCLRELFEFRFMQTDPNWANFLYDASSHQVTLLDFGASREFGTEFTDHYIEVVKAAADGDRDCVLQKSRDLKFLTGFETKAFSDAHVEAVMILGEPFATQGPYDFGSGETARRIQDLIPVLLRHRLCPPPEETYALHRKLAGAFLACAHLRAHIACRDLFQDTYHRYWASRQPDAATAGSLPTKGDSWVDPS
Outline: as §1

p38-alpha = molecular target: T21, p38-alpha (Homo sapiens, UniProt Q16539)
T21 construct: host or cells: E. coli host derived from the BL21 strain, infected with T7 phage
T21 sequence (Q16539 whole entry): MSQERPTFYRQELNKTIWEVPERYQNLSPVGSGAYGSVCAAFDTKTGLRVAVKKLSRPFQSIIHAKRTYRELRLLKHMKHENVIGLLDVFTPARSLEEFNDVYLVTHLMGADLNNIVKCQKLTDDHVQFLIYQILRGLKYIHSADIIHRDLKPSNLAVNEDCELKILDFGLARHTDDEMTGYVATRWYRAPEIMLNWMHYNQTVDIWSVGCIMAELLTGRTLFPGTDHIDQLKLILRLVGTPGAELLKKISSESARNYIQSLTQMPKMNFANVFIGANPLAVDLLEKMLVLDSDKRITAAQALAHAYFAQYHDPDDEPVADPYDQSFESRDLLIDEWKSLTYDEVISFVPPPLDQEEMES
Outline: as §1

RET (V804M) = molecular target: T22, RET (V804M) (Homo sapiens, UniProt P07949, V804M)
T22 construct: host or cells: E. coli host derived from BL21, T7 phage lysate
Outline: as §1

C#Cc1cccc(Nc2ncnc3cc(OC)c(OCCCN4CCOCC4)cc23)c1 [NRC-2694, N-(3-ethylnylphenyl)-7-methoxy-6-[3-(4-morpholinyl)propoxy]-4-quinazolinamine]
% Ctrl @ 10000 nM (TNNI3K): 7.6 % Ctrl | % Ctrl @ 10000 nM (MYLK): 62 % Ctrl | % Ctrl @ 10000 nM (PLK1): 81 % Ctrl | % Ctrl @ 10000 nM (FLT3): 49 % Ctrl | % Ctrl @ 10000 nM (ERBB2): 31 % Ctrl | % Ctrl @ 10000 nM (TNK2): 37 % Ctrl | % Ctrl @ 10000 nM (FRK): 10 % Ctrl | % Ctrl @ 10000 nM (CAMKK1): 71 % Ctrl | % Ctrl @ 10000 nM (EGFR (G719S)): 0 % Ctrl | % Ctrl @ 10000 nM (BRK): 46 % Ctrl | % Ctrl @ 10000 nM (MYLK2): 4.8 % Ctrl | % Ctrl @ 10000 nM (GAK): 0.95 % Ctrl | % Ctrl @ 10000 nM (PIK3CA): 100 % Ctrl | % Ctrl @ 10000 nM [1]: 100 % Ctrl | % Ctrl @ 10000 nM (BRAF): 81 % Ctrl | % Ctrl @ 10000 nM (NEK7): 78 % Ctrl | % Ctrl @ 10000 nM (CAMK2A): 63 % Ctrl | % Ctrl @ 10000 nM (MELK): 57 % Ctrl | % Ctrl @ 10000 nM (PFTAIRE2): 71 % Ctrl | % Ctrl @ 10000 nM (ADCK4): 14 % Ctrl | % Ctrl @ 10000 nM (p38-alpha): 89 % Ctrl | % Ctrl @ 10000 nM (RET (V804M)): 100 % Ctrl
